Reference: US20100081679A1, “DIAMINOPYRIMIDINES AS FUNGICIDES” (Bayer CropScience AG, priority 2007, published 2010)
Marks after values point to notes of the source that are not given here.

Assay: logP determination via retention times, calibrated with unbranched alkan-2-ones
Type: physicochemical
Conditions: linear gradient 10% to 95% acetonitrile
[1] = HPLC on reversed-phase C 18, EEC Directive 79/831 Annex V.A8, method *: 40° C., 0.1% aqueous formic acid and acetonitrile
[2] = method *: HPLC reversed-phase C 18, temperature 40° C., mobile phase 0.1% aqueous formic acid and acetonitrile

Compound	logP [1]	logP [2]
CC(=O)Nc1ccc(Nc2ncc(Cl)c(NCC3CC3)n2)cc1Cl [compound 505]	1.68*	
CCN(C(C)=O)c1ccc(Nc2ncc(Cl)c(NCC3CC3)n2)cc1 [compound 506]	1.73*	
CC(=O)Nc1ccc(Nc2ncc(Cl)c(NCC3CC3)n2)cn1 [compound 507]	0.89*	
CCC(=O)Nc1cccc(Nc2ncc(Cl)c(NCC3CC3)n2)c1 [compound 508]	1.61*	
CN(C)C(=O)c1ccc(Nc2ncc(Cl)c(NCC3CC3)n2)cc1 [compound 509]	1.59*	
CNC(=O)c1ccc(Nc2ncc(Cl)c(NCC3CC3)n2)cc1 [compound 510]	1.44*	
CNC(=O)c1cccc(Nc2ncc(Cl)c(NCC3CC3)n2)c1 [compound 511]	1.44*	
O=C1NC(=O)C(c2ccc(Nc3ncc(Cl)c(NCC4CC4)n3)cc2)N1 (stereo not drawn) [compound 512]	1.27*	
CCOC(=O)Nc1cccc(Nc2ncc(Cl)c(NCC3CC3)n2)c1 [compound 513]	1.9*	
CNC(=O)Oc1cccc(Nc2ncc(Cl)c(NCC3CC3)n2)c1 [compound 514]	1.61*	
COC(=O)Nc1cccc(Nc2ncc(Cl)c(NCC3CC3)n2)c1 [compound 515]	1.66*	
O=C1Cc2cc(Nc3ncc(Cl)c(NCC4CC4)n3)ccc2N1 [compound 516]	1.31*	
O=C1CCc2cc(Nc3ncc(Cl)c(NCC4CC4)n3)ccc2N1 [compound 517]	1.19*	
CC(=O)N1CCc2cc(Nc3ncc(Cl)c(NCC4CC4)n3)ccc21 [compound 518]	1.59*	
CN(C)C(=O)c1cccc(Nc2ncc(Cl)c(NCC3CC3)n2)c1 [compound 519]	1.58*	
O=C1CCCN1c1cccc(Nc2ncc(Cl)c(NCC3CC3)n2)c1 [compound 520]	1.56*	
CC(=O)N1CCc2ccc(Nc3ncc(Cl)c(NCC4CC4)n3)cc21 [compound 521]	1.66*	
CC(C)(C)OC(=O)Nc1ccc(Nc2ncc(Cl)c(NCC3CC3)n2)cc1 [compound 522]	2.18*	
CN1CC(=O)N(c2ccc(Nc3ncc(Cl)c(NCC4CC4)n3)cc2)C1=O [compound 523]	1.53*	
CC(C)(C)OC(=O)Nc1cccc(Nc2ncc(Cl)c(NCC3CC3)n2)c1 [compound 524]	2.33*	
CN(C(=O)C(C)(C)C)c1ccc(Nc2ncc(Cl)c(NCC3CC3)n2)cc1 [compound 525]	2.02*	
CC(C)C(=O)Nc1ccc(Nc2ncc(Cl)c(NCC3CC3)n2)cc1 [compound 526]	1.73*	
FC(F)C(F)(F)Oc1cccc(Nc2ncc(Cl)c(NCC3CC3)n2)c1 [compound 527]	2.95*	

Compound	logP [1]	logP [2]
CC1CC(C)CN(c2cccc(Nc3ncc(Cl)c(NC4CC4)n3)c2)C1 (stereo not drawn) [compound 528]	2.46*	
CC1CC(C)CN(c2cccc(Nc3ncc(Br)c(NC4CC4)n3)c2)C1 (stereo not drawn) [compound 529]	2.63*	
COC(=O)Nc1ccc(Nc2ncc(Cl)c(NC3CC3)n2)c(F)c1 [compound 530]	1.56*	
CCCOc1cccc(Nc2ncc(Cl)c(NC3CC3)n2)c1 [compound 531]	2.64*	
COc1cc(Nc2ncc(Br)c(NC3CC3)n2)ccc1Cl [compound 532]	2.70*	
CC1COC(=O)N1c1cccc(Nc2ncc(Br)c(NC3CC3)n2)c1 (stereo not drawn) [compound 533]	1.68*	
FC(F)Oc1cccc(Nc2ncc(Cl)c(NC3CC3)n2)c1 [compound 534]	2.51*	
Clc1cnc(Nc2cccc(N3CCCCC3)c2)nc1NC1CC1 [compound 535]	1.45*	
O=C1CCCN1c1cc(Nc2ncc(Cl)c(NC3CC3)n2)ccc1F [compound 536]	1.53*	
O=S(=O)(Cc1ccc(Nc2ncc(Cl)c(NC3CC3)n2)cc1)N1CCCCC1 [compound 537]	2.17*	
FC(F)Oc1ccc(Nc2ncc(Cl)c(NCC3CC3)n2)cc1 [compound 538]	2.25*	
CCOC(=O)Cc1ccc(Nc2ncc(Cl)c(NCC3CC3)n2)cc1 [compound 539]	2.09*	
CC(=O)c1cc(Nc2ncc(Cl)c(NCC3CC3)n2)ccc1Cl [compound 540]	2.51*	
CCC(=O)c1cc(Nc2ncc(Cl)c(NCC3CC3)n2)ccc1O [compound 541]	2.13*	
CCOC(=O)Nc1ccc(Nc2ncc(Cl)c(NCC3CC3)n2)cc1O [compound 542]	1.68*	
CCOC(=O)Nc1ccc(Nc2ncc(Cl)c(NCC3CC3)n2)cc1 [compound 543]	1.8*	
O=CNc1ccc(Nc2ncc(Cl)c(NCC3CC3)n2)cc1 [compound 544]	1.17*	
CN(C=O)c1ccc(Nc2ncc(Cl)c(NCC3CC3)n2)cc1 [compound 545]	1.56*	
O=CNc1cccc(Nc2ncc(Cl)c(NCC3CC3)n2)c1 [compound 546]	1.46*	
CSc1cc(Nc2ncc(Cl)c(NCC3CC3)n2)ccc1C [compound 547]	2.45*	
CN(C)C(=O)Nc1ccc(Nc2ncc(Cl)c(NCC3CC3)n2)cc1 [compound 548]	1.49*	
Fc1ccc(Nc2ncc(Cl)c(NCC3CC3)n2)cc1 [compound 550]	1.97*	
CCCCC(=O)Oc1ccc(Nc2ncc(Cl)c(NCC3CC3)n2)cc1 [compound 551]	3.8*	

Compound	logP [1]	logP [2]
CC(=O)Nc1cc(Nc2ncc(Cl)c(NCC3CC3)n2)ccc1O [compound 552]	1.29*	
CC(=O)c1cc(Nc2ncc(Cl)c(NCC3CC3)n2)ccc1O [compound 553]	1.85*	
Oc1ccc(Nc2ncc(Cl)c(NCC3CC3)n2)cc1F [compound 554]	1.49*	
CC(C)(CCl)C(=O)Nc1ccc(Nc2ncc(Cl)c(NCC3CC3)n2)cc1 [compound 556]	2.02*	
O=C(Nc1cccc(Nc2ncc(Cl)c(NCC3CC3)n2)c1)c1ccccc1 [compound 557]	2.21*	
Cc1cc(Nc2ncc(Cl)c(NCC3CC3)n2)ccc1O [compound 558]	1.51*	
FC(F)Sc1ccc(Nc2ncc(Cl)c(NCC3CC3)n2)cc1 [compound 559]	2.91*	
OCc1cccc(Nc2ncc(Cl)c(NCC3CC3)n2)c1 [compound 560]	1.47*	
CC(C)(C)NC(=O)Cc1cccc(Nc2ncc(Cl)c(NCC3CC3)n2)c1 [compound 561]	1.93*	
CC(C)(C)NC(=O)Cc1cccc(Nc2ncc(Cl)c(NC3CC3)n2)c1 [compound 562]	1.81*	
COc1cc(Nc2ncc(Br)c(NC3CC3)n2)cc(OC)c1 [compound 563]	2.15*	
FC(F)(F)c1cnc(Nc2cccc(N3CCCC3)c2)nc1NC1CC1 [compound 564]	3.55*	
CC(=O)Cc1ccc(Nc2ncc(Br)c(NC3CC3)n2)cc1 [compound 565]	1.58*	
CS(=O)(=O)Cc1cccc(Nc2ncc(Cl)c(NCC3CC3)n2)c1 [compound 566]		1.38*
Cc1cnc(Nc2cccc(N3CCCC3=O)c2)nc1NC1CC1 [compound 567]		1.14*
COc1cc(Nc2ncc(Br)c(NC3CC3)n2)ccc1F [compound 568]		2.05*
O=C1CCCCN1c1ccc(Nc2ncc(Cl)c(NC3CC3)n2)cc1 [compound 569]		1.47*
CN1CCN(c2cccc(Nc3ncc(Br)c(NC4CC4)n3)c2)C1=O [compound 570]		1.58*
N#Cc1cccc(Nc2ncc(F)c(NC3CC3)n2)c1 [compound 571]		1.61*
COc1cc(Nc2ncc(F)c(NC3CC3)n2)ccc1NC(C)=O [compound 572]		1.17*
COc1cccc(Nc2ncc(F)c(NC3CC3)n2)c1 [compound 573]		1.51*
N#Cc1ccc(Nc2ncc(F)c(NC3CC3)n2)cc1 [compound 575]		1.73*
Fc1cnc(Nc2cccc(OC(F)(F)F)c2)nc1NC1CC1 [compound 576]		2.33*

Compound	logP [1]	logP [2]
CN(C)S(=O)(=O)c1ccc(Nc2ncc(F)c(NC3CC3)n2)cc1 [compound 578]		1.68*
CSc1ccc(Nc2ncc(F)c(NC3CC3)n2)cc1Cl [compound 579]		2.13*
CC(=O)Nc1ccc(Nc2ncc(F)c(NC3CC3)n2)cc1Cl [compound 580]		1.32*
CCN(C(C)=O)c1ccc(Nc2ncc(F)c(NC3CC3)n2)cc1 [compound 581]		1.38*
CC(=O)N(C)c1ccc(Nc2ncc(F)c(NC3CC3)n2)cc1 [compound 582]		1.23*
O=C(Nc1ccc(Nc2ncc(F)c(NC3CC3)n2)cc1)C(F)(F)F [compound 583]		1.58*
CNC(=O)c1ccc(Nc2ncc(F)c(NC3CC3)n2)cc1 [compound 584]		1.05*
CNC(=O)c1cccc(Nc2ncc(F)c(NC3CC3)n2)c1 [compound 585]		1.05*
CSc1cccc(Nc2ncc(F)c(NC3CC3)n2)c1 [compound 586]		1.73*
CSc1ccc(Nc2ncc(F)c(NC3CC3)n2)cc1 [compound 587]		1.68*
O=S(=O)(c1cccc(Nc2ncc(F)c(NC3CC3)n2)c1)N1CCCCC1 [compound 588]		1.61*
CC(C)(C)C(=O)Cc1ccc(Nc2ncc(F)c(NC3CC3)n2)cc1 [compound 589]		1.92*
CC(=O)c1ccc(Nc2ncc(F)c(NC3CC3)n2)cc1 [compound 590]		1.53*
CC(=O)c1cccc(Nc2ncc(F)c(NC3CC3)n2)c1 [compound 591]		1.45*
O=C1OCCN1c1ccc(Nc2ncc(F)c(NC3CC3)n2)cc1 [compound 592]		1.23*
O=C1CCCN1c1ccc(Nc2ncc(F)c(NC3CC3)n2)cc1 [compound 593]		1.35*
COC(=O)Nc1ccc(Nc2ncc(F)c(NC3CC3)n2)cc1 [compound 594]		1.28*
CCOC(=O)Nc1ccc(Nc2ncc(F)c(NC3CC3)n2)cc1 [compound 595]		1.46*
CCOC(=O)Nc1cccc(Nc2ncc(F)c(NC3CC3)n2)c1 [compound 596]		1.53*
CNC(=O)Nc1cccc(Nc2ncc(F)c(NC3CC3)n2)c1 [compound 597]		1.28*
COC(=O)Nc1cccc(Nc2ncc(F)c(NC3CC3)n2)c1 [compound 598]		1.37*
